Measured values as given in ChEMBL document CHEMBL6078642, “Design, Synthesis, and Activity Evaluation of BRD4 PROTAC Based on Alkenyl Oxindole-DCAF11 Pair” (J Med Chem, 2024).
The source made the active and inactive calls. No cut-off for these calls is given here.

Columns and labels:
[1] = molecular target: T1, DCAF11-BRD4 (Homo sapiens, UniProt O60885+Q8TEB1); test: PROTAC activity at DCAF11/BRD4 BD1 domain (unknown origin) expressed in HEK293T cells assessed as induction of BRD4 degradation at 1 uM incubated for 12 hrs by Dual fluorescence reporter cell high content imaging analysis relative to control; type: cell-based
T1 sequence (Q8TEB1 whole entry, looked up, other chains not shown, the tested form may be a part): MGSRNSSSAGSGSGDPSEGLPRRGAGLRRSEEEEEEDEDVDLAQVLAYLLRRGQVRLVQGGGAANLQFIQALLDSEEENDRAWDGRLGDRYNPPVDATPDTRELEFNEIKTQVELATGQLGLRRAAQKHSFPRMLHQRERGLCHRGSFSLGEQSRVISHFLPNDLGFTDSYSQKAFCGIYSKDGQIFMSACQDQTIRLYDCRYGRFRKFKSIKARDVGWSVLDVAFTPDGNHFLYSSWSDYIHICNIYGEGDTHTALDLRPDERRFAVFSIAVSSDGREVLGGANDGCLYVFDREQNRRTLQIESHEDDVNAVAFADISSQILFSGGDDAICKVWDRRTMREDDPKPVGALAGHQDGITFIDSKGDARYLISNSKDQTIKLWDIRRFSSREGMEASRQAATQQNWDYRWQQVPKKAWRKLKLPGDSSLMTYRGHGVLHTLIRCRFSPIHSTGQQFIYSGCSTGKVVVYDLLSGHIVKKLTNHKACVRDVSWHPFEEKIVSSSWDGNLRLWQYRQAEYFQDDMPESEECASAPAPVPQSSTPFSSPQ

[2] = system: HEK293T; test: Induction of BRD4 BD1 domain (unknown origin) degradation expressed in DCAF11 knockout HEK293T cells assessed as decrease in red fluorescence at 1 uM incubated for 12 hrs by dual fluorescence reporter cell based high content imaging analysis; conditions: Homo sapiens
[3] = molecular target: T1, DCAF11-BRD4; test: PROTAC activity at DCAF11/BRD4 in human MDA-MB-231 cells assessed as induction of BRD4 degradation at 1 uM preincubated with chloroquine for 1 hrs and measured after compound addition by immunoblot analysis; type: cell-based
[4] = molecular target: T1, DCAF11-BRD4; test: PROTAC activity at DCAF11/BRD4 in human MDA-MB-231 cells assessed as induction of BRD4 degradation at 10 to 100 nM incubated for 1 hrs by immunoblot analysis; type: cell-based; conditions: dose 10-100 nM
[5] = molecular target: T1, DCAF11-BRD4; test: PROTAC activity at DCAF11/BRD4 in human MDA-MB-231 cells assessed as induction of BRD4 degradation at 1 uM incubated for 12 hrs in presence of tert-butyl 2-(4-methyl-2-((2-oxo-6-(trifluoromethyl)indolin-3-ylidene)methyl)phenoxy)acetate by immunoblot analysis; type: cell-based
[6] = molecular target: T1, DCAF11-BRD4; test: PROTAC activity at DCAF11/BRD4 in human MDA-MB-231 cells assessed as induction of BRD4 degradation at 1 uM incubated for 12 hrs in presence of JQ1 by immunoblot analysis; type: cell-based
[7] = molecular target: T1, DCAF11-BRD4; test: PROTAC activity at DCAF11/BRD4 BD1 domain (unknown origin) expressed in HEK293T cells assessed as induction of BRD4 degradation at 10 to 100 nM incubated for 12 hrs by Dual fluorescence reporter cell high content imaging analysis; type: cell-based; conditions: dose 10-100 nM
[8] = molecular target: T1, DCAF11-BRD4; test: Binding affinity to HA-tagged DCAF11/Flag-tagged BRD4 BD1 domain (unknown origin) expressed in HEK293T cells by co-immunoprecipitation analysis; type: cell-based
[9] = system: MDA-MB-231; test: Inhibition of cell migration in human MDA-MB-231 cells at 0.1 to 1 uM measured after 48 hrs by crystal violet staining based transwell migration assay; type: functional; conditions: dose 0.1-1 µM
[10] = system: MDA-MB-231; test: Antiproliferative activity against human MDA-MB-231 cells assessed as reduction in cell viability incubated for 2 days by CCK8 assay; type: functional, cell-based; conditions: MDA-MB-231, 48 h
[11] = system: MDA-MB-231; test: Downregulation of BRD4 protein expression in human MDA-MB-231 cells at 1 uM incubated for 6 hrs by proteomic analysis; type: functional, cell-based
[12] = molecular target: T1, DCAF11-BRD4; test: PROTAC activity at DCAF11/BRD4 in human MDA-MB-231 cells assessed as induction of BRD4 degradation at 1 uM measured within 1 hrs by immunoblot analysis; type: cell-based
[13] = molecular target: T1, DCAF11-BRD4; test: PROTAC activity at DCAF11/BRD4 in human BT-549 cells assessed as induction of BRD4 degradation at 1 uM incubated for 12 hrs by immunoblot analysis; type: cell-based
[14] = molecular target: T1, DCAF11-BRD4; test: PROTAC activity at DCAF11/BRD4 in human MDA-MB-231 cells assessed as induction of BRD4 degradation by immunoblot analysis; type: cell-based
[15] = system: MDA-MB-231; test: Induction of apoptosis in human MDA-MB-231 cells assessed as increase in cleaved caspase-7 level by immunoblot analysis; type: functional, cell-based
[16] = molecular target: T1, DCAF11-BRD4; test: PROTAC activity at DCAF11/BRD4 in human MDA-MB-231 cells assessed as induction of BRD4 degradation at 1 to 100 nM incubated for 1 hrs by Western blot analysis; type: cell-based; conditions: dose 1-100 nM
[17] = molecular target: T1, DCAF11-BRD4; test: PROTAC activity at DCAF11/BRD4 in human MCF7 cells assessed as induction of BRD4 degradation at 1 uM incubated for 12 hrs by immunoblot analysis; type: cell-based
[18] = system: T47D; test: Antiproliferative activity against human T47D cells assessed as reduction in cell viability incubated for 2 days by CCK8 assay; type: functional, cell-based; conditions: 48 h
[19] = molecular target: T1, DCAF11-BRD4; test: PROTAC activity at DCAF11/BRD4 in human HCC1937 cells assessed as induction of BRD4 degradation at 1 uM incubated for 12 hrs by immunoblot analysis; type: cell-based
[20] = system: MDA-MB-231; test: Effect on BRD4 mRNA gene expression in human MDA-MB-231 cells at 0.1 to 1 microM incubated for 12 hrs by qPCR analysis; type: functional, cell-based; conditions: dose 0.1-1 µM
[21] = molecular target: T1, DCAF11-BRD4; test: PROTAC activity at DCAF11/BRD4 in human MDA-MB-231 cells assessed as induction of BRD4 degradation at 1 uM preincubated with PYR41 for 1 hrs and measured after compound addition by immunoblot analysis; type: cell-based
[22] = molecular target: T1, DCAF11-BRD4; test: Binding affinity to DCAF11/BRD4 BD1 domain in HEK293T cells by co-immunoprecipitation analysis; type: cell-based
[23] = system: HEK293T; test: Induction of BRD4 BD1 domain (unknown origin) degradation expressed in DCAF11 knockout HEK293T cells at 1 uM incubated for 12 hrs by immunoblot analysis; type: cell-based; conditions: Homo sapiens
[24] = system: MDA-MB-468; test: Antiproliferative activity against human MDA-MB-468 cells assessed as reduction in cell viability incubated for 2 days by CCK8 assay; type: functional, cell-based; conditions: MDA-MB-468, 48 h
[25] = molecular target: T1, DCAF11-BRD4; test: PROTAC activity at DCAF11/BRD4 in human MDA-MB-231 cells assessed as induction of BRD4 degradation at 1 uM preincubated with bortezomib for 1 hrs and measured after compound addition by immunoblot analysis; type: cell-based
[26] = system: HCC1937; test: Antiproliferative activity against human HCC1937 cells assessed as reduction in cell viability incubated for 2 days by CCK8 assay; type: functional, cell-based; conditions: HCC1937, 48 h
[27] = molecular target: T1, DCAF11-BRD4; test: PROTAC activity at DCAF11/BRD4 in human MDA-MB-231 cells assessed as induction of BRD4 degradation at 1 uM preincubated with MG132 for 1 hrs and measured after compound addition by immunoblot analysis; type: cell-based
[28] = molecular target: T1, DCAF11-BRD4; test: PROTAC activity at DCAF11/BRD4 in human MDA-MB-468 cells assessed as induction of BRD4 degradation at 1 uM incubated for 12 hrs by immunoblot analysis; type: cell-based
[29] = system: MCF7; test: Antiproliferative activity against human MCF7 cells assessed as reduction in cell viability incubated for 2 days by CCK8 assay; type: functional, cell-based; conditions: MCF7, 48 h
[30] = molecular target: T1, DCAF11-BRD4; test: PROTAC activity at DCAF11/BRD4 in human MDA-MB-231 cells assessed as induction of BRD4 degradation at 1 uM preincubated with MLN4924 for 1 hrs and measured after compound addition by immunoblot analysis; type: cell-based
[31] = system: BT-549; test: Antiproliferative activity against human BT-549 cells assessed as reduction in cell viability incubated for 2 days by CCK8 assay; type: functional, cell-based; conditions: BT-549, 48 h
[32] = molecular target: T1, DCAF11-BRD4; test: PROTAC activity at DCAF11/BRD4 in human MDA-MB-231 cells assessed as induction of BRD4 degradation incubated for 12 hrs by immunoblot analysis; type: cell-based; conditions: dose 0.1-1000 nM
[33] = system: MDA-MB-231; test: Induction of apoptosis in human MDA-MB-231 cells assessed as increase in cleaved PARP level by immunoblot analysis; type: functional, cell-based
[34] = molecular target: T1, DCAF11-BRD4; test: PROTAC activity at DCAF11/BRD4 in human MDA-MB-231 cells assessed as induction of BRD4 degradation at 10 nM incubated for 12 hrs by immunoblot analysis; type: cell-based
[35] = molecular target: T1, DCAF11-BRD4; test: PROTAC activity at DCAF11/BRD4 in human T47D cells assessed as induction of BRD4 degradation at 1 uM incubated for 12 hrs by immunoblot analysis; type: cell-based
[36] = system: MDA-MB-157; test: Antiproliferative activity against human MDA-MB-157 cells assessed as reduction in cell viability incubated for 2 days by CCK8 assay; type: functional, cell-based; conditions: MDA-MB-157, 48 h
[37] = molecular target: T1, DCAF11-BRD4; test: PROTAC activity at DCAF11/BRD4 in human MDA-MB-157 cells assessed as induction of BRD4 degradation at 1 uM incubated for 12 hrs by immunoblot analysis; type: cell-based
[38] = molecular target: T1, DCAF11-BRD4; test: PROTAC activity at DCAF11/BRD4 in human MDA-MB-231 cells assessed as induction of BRD4 degradation at 1 uM preincubated with bafilomycin A1 for 1 hrs and measured after compound addition by immunoblot analysis; type: cell-based

Cc1sc2c(c1C)C(c1ccc(Cl)cc1)=N[C@@H](CC(=O)NCCCOc1ccc(Br)cc1/C=C1/C(=O)Nc3cc(C(F)(F)F)ccc31)c1nnc(C)n1-2
Activity [1]: > 35%
Activity [2]: inactive

Cc1ccc(OCC(=O)NCCCOCCOCCOCCCNC(=O)C[C@@H]2N=C(c3ccc(Cl)cc3)c3c(sc(C)c3C)-n3c(C)nnc32)c(/C=C2\C(=O)Nc3cc(C(F)(F)F)ccc32)c1 (stereo in doubt)
Activity [3]: Active
Activity [4]: Active
Activity [5]: inactive
Activity [6]: inactive
Activity [7]: Active
Activity [8]: Active
inhibition [9]: Active
IC50 [10]: 0.07 µM
Activity [11]: Active
Activity [12]: Active
Activity [13]: Active
DC50 [14]: 0.00736 µM
Activity [15]: Active
Activity [16]: Active; Degradation Capability Comparable To Dbet6 And Mz1
Activity [1]: > 35%
Activity [17]: Active
IC50 [18]: 0.63 µM
Activity [19]: Active
Activity [20]: inactive
Activity [21]: inactive
Activity [22]: Active
Activity [23]: inactive
IC50 [24]: 0.02 µM
Activity [25]: inactive
IC50 [26]: 0.18 µM
Activity [27]: inactive
Activity [28]: Active
IC50 [29]: 2.85 µM
Activity [30]: inactive
IC50 [31]: 6.37 µM
Activity [32]: Dose-dependent-effect
Activity [33]: Active
Activity [34]: Active
Activity [2]: inactive
Activity [35]: Active
IC50 [36]: 0.1 µM
Activity [37]: Active
Activity [38]: Active

Cc1sc2c(c1C)C(c1ccc(Cl)cc1)=N[C@@H](CC(=O)NCCCOc1c(Br)cc(Br)c(/C=C3/C(=O)Nc4cc(C(F)(F)F)ccc43)c1Br)c1nnc(C)n1-2
Activity [2]: inactive

Cc1sc2c(c1C)C(c1ccc(Cl)cc1)=N[C@@H](CC(=O)NCCCOCCOCCOCCCNC(=O)COc1ccc(/C=C3/C(=O)Nc4cc(C(F)(F)F)ccc43)nc1)c1nnc(C)n1-2 (stereo in doubt)
Activity [4]: Active
Activity [1]: > 35%
Activity [2]: inactive

Cc1sc2c(c1C)C(c1ccc(Cl)cc1)=N[C@@H](CC(=O)NCCCOCCOCCOCCCNC(=O)c1ccsc1/C=C1/C(=O)Nc3cc(C(F)(F)F)ccc31)c1nnc(C)n1-2
Activity [2]: inactive

Cc1sc2c(c1C)C(c1ccc(Cl)cc1)=N[C@@H](CC(=O)NCCCOCCOCCOCCCNC(=O)COc1ccc(/C=C3/C(=O)Nc4ccc(F)cc43)cc1)c1nnc(C)n1-2 (stereo in doubt)
Activity [1]: > 35%
Activity [2]: inactive

Cc1sc2c(c1C)C(c1ccc(Cl)cc1)=N[C@@H](CC(=O)NCCCOCCOCCOCCCNC(=O)COc1ccc(/C=C3/C(=O)Nc4ccc(Br)cc43)cc1)c1nnc(C)n1-2 (stereo in doubt)
Activity [4]: Active
Activity [1]: > 35%
Activity [2]: inactive

Cc1sc2c(c1C)C(c1ccc(Cl)cc1)=N[C@@H](CC(=O)NCCCOc1c(Br)cc(/C=C3/C(=O)Nc4cc(C(F)(F)F)ccc43)cc1Br)c1nnc(C)n1-2 (stereo in doubt)
Activity [1]: > 35%
Activity [2]: inactive
